The record followed here is US20230039099A1, “AKT INHIBITORS FOR ENHANCING CHIMERIC T CELL PERSISTENCE” (H. Lee Moffitt Cancer Center and Research Institute, Inc., priority 2019, published 2023).

The structures appear in SMILES notation.

For one data set, the system named is CAR T cells. Kind of data set: CAR T cell memory phenotype by flow cytometry (LSRII), TCN added during CAR T cell production. The data set is classed as cell-based, human. As to conditions: healthy donor PBMC T cells; TCN added on day 2 before first spin transduction; flow cytometry on day 7. The method, then: FIGS. 1A to 1G show TCN increases central memory CAR T cell population. T cells were isolated from healthy donor PBMCs using negative selection. TCN was added on day 2 before the first spin transduction. On day 7 cells were stained for flow cytometry and run on an LSRII.
T cells were isolated from healthy donor PBMCs using negative selection. TCN was added on day 2 before the first spin transduction. On day 7 cells were stained for flow cytometry and run on an LSRII.
For the anti-human CD19 constructs the SFG backbone was modified to include the FMC63 ScFv with a CD8a trans-membrane and hinge domain followed by either CD28 or 4-1BB, and CD3. All SFG constructs were calcium phosphate transfected into H29 cells. Retroviral supernatants of transfected H29 were harvested and used to transduce Phoenix E or RD114 cells. Retroviral supernatant of producer cells was harvested, 0.45 μm filtered, and used to transduce T cells as described. Viability was measured by trypan blue staining and enumerated on an automated cell counter (Bio-Rad). Transduction efficiency was estimated by flow cytometry as a percentage of protein L+ live cells. For downstream experiments CAR T cell doses were normalized based on CAR gene transfer but not sorted to exclude CAR-negative T cells. As a result, total T cell dose was varied.
On the technique in general: Flow cytometry measures light scatter and fluorescence of single cells or particles in a stream.

The subject of another data set is p-Akt. Briefly: p-Akt western blot in m1928z CAR T cells stimulated with 3T3-mCD19 targets. The data set is classed as cell-based, mouse (C57BL6). As to conditions: C57BL6 splenocyte T cells, TCN added on day 2, day 5 stimulation with 3T3-mCD19 targets for 24 hrs. The method, then:
T cells were isolated from C57BL6 splenocyes using negative selection. TCN was added on day 2 before the first spin transduction. On day 5 CAR T cells were stimulated with 3T3-mCD19 targets for 24 hrs. After stimulation cells were lysed and run by western blot. […] T cells were isolated from C57BL6 splenocyes using negative selection. TCN was added on day 2 before the first spin transduction. On day 5 CAR T cells were stimulated with 3T3-mCD19 targets for 24 hrs. After stimulation cells were lysed and run by western blot.
For orientation: Immunoblotting shows a protein as a band on a membrane.

Data set [1] deals with h19BBz CAR T cells. Kind of data set: Real time cell killing of 3T3-hCD19 target cells by h19BBz CAR T cells (xCelligence RTCA). The data set is classed as cell-based, human. As to conditions: healthy donor T cells, TCN added on day 2. The method, then:
(§1) T cells were isolated from healthy donor PBMCs using negative selection. TCN was added on day 2 before the first spin transduction. To measure real time cell killing CAR T cells were stimulated with 3T3-hCD19 target cells using an xCelligence RTCA machine. To measure cytokine secretion CAR T cells were stimulated with target cells for 24 hrs. Supernatant was then collected and run using Ella to measure cytokines. […] T cells were isolated from healthy donor PBMCs using negative selection. TCN was added on day 2 before the first spin transduction. To measure real time cell killing CAR T cells were stimulated with 3T3-hCD19 target cells using an xCelligence RTCA machine. To measure cytokine secretion CAR T cells were stimulated with target cells for 24 hrs. Supernatant was then collected and run using Ella to measure cytokines.

Data set [2] relates to h19BBz CAR T cells. Briefly: Cytokine secretion of h19BBz CAR T cells stimulated with target cells for 24 hrs (Ella). The data set is classed as cell-based, human. As to conditions: healthy donor T cells; TCN added on day 2; target cell stimulation 24 hrs; supernatant run on Ella. On the procedure: as §1
The subject of a further data set is T cells. Briefly: Toxicity of TCN for T cells. The data set is classed as cell-based. As to conditions: human healthy donor T cells, in vitro. The method, then:
Previous studies have shown drugs given during CART cell production can influence their function. To determine the effect of TCN human healthy donor T cells are treated with TCN prior to CAR transduction. 10 μM of TCN is used because it is the highest non-toxic dose for T cells. After transduction and proliferation in culture in vitro assays are preformed to determine CAR T cell function. These include cytotoxicity, cytokine secretion, RNA-seq, polyfunctional strength index, and CAR T cell phenotype. We next evaluate the function of CAR T cells given TCN during production in vivo. A total of 60 NSG mice are given the human B cell tumor cell line NALM6 containing luciferase on day −7. On day 0, 10 mice per group will be given untransduced, h1928z, or h19BBz CAR T cells produced with or without TCN. Bioluminescence imaging is used to determine tumor burden and measure overall survival.

For the compound `CN1N=C(N)c2cn([C@@H]3O[C@H](COP(=O)(O)O)[C@@H](O)[C@H]3O)c3ncnc1c23` [TCN, Triciribine], in the data set with CAR T cells, the “central memory CAR T cell population” value is reported as “increases” and the “effector memory CAR T cell population” value is on record as “increases”. For the same compound, the “p-Akt in m1928z CAR T cells” value in the data set on p-Akt is reported as “inhibits”. For the same compound, the “h19BBz CAR killing” value in the data set with h19BBz CAR T cells [1] is given as “reduces”. Also, the “h19BBz CAR cytokine secretion” value in the data set on h19BBz CAR T cells [2] is recorded as “reduces”. For the same compound, in the data set with T cells, the “highest non-toxic dose for T cells” value stood at 10 µM.
